Measured values published in ChEMBL document CHEMBL5325437, “Shifting the selectivity of pyrido[2,3-d]pyrimidin-7(8H)-one inhibitors towards the salt-inducible kinase (SIK) subfamily” (Eur J Med Chem, 2023).
Active and inactive are the calls of the source. No cut-off for these calls is given here.

Assays:
[1] = target: T1, Serine/threonine-protein kinase 4 (Homo sapiens) (UniProt Q13043); assay: Binding affinity to recombinant MST1 (unknown origin) assessed as stabilization by measuring change in melting temperature at 10 uM by SYPRO orange dye based differential scanning fluorimetry assay
T1 sequence (whole entry): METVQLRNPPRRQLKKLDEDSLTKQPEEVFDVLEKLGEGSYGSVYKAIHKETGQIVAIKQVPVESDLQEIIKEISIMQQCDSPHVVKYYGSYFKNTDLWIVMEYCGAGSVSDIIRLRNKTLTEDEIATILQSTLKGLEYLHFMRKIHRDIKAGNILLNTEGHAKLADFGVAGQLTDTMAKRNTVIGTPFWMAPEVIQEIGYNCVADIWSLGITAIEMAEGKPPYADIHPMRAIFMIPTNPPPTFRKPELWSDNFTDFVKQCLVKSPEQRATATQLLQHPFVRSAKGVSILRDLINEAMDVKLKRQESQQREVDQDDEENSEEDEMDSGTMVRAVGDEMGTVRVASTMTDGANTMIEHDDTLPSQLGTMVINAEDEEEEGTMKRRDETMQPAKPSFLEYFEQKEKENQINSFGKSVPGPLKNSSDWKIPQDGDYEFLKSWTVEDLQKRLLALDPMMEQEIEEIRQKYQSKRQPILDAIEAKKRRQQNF

[2] = target: T2, Serine/threonine-protein kinase 3 (Homo sapiens) (UniProt Q13188); assay: Binding affinity to recombinant MST2 (unknown origin) assessed as stabilization by measuring change in melting temperature at 10 uM by SYPRO orange dye based differential scanning fluorimetry assay
T2 sequence (whole entry): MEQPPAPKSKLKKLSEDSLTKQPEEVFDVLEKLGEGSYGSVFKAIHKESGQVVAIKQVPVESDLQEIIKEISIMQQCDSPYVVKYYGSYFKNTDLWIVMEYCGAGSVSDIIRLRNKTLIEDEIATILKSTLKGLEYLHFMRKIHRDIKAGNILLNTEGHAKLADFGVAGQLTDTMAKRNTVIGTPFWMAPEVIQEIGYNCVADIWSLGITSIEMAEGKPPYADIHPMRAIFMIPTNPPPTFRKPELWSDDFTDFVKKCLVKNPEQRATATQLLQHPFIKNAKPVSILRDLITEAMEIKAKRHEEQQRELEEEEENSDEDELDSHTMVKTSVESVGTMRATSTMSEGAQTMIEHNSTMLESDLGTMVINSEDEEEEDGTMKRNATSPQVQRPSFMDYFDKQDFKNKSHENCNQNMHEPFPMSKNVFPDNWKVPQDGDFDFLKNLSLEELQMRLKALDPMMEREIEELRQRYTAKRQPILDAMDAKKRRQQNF

[3] = target: Serine/threonine-protein kinase 24 (Homo sapiens) (UniProt Q9Y6E0); assay: Binding affinity to recombinant MST3 (unknown origin) assessed as stabilization by measuring change in melting temperature at 10 uM by SYPRO orange dye based differential scanning fluorimetry assay
Chain of Serine/threonine-protein kinase 24 (Homo sapiens) (Q9Y6E0 whole entry, looked up): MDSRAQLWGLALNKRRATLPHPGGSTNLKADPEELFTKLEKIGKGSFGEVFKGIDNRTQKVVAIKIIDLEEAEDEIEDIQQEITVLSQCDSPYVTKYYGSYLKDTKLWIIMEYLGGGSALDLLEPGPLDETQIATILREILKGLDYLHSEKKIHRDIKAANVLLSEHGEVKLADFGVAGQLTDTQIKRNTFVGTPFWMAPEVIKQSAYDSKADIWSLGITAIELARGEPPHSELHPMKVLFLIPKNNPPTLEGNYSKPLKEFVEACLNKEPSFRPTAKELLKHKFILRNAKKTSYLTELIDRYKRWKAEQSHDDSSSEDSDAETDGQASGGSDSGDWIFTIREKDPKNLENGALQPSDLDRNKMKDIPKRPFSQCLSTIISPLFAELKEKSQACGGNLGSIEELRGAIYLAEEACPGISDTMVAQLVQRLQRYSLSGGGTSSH

[4] = target: Serine/threonine-protein kinase 26 (Homo sapiens) (UniProt Q9P289); assay: Binding affinity to recombinant MST4 (unknown origin) assessed as stabilization by measuring change in melting temperature at 10 uM by SYPRO orange dye based differential scanning fluorimetry assay
Chain of Serine/threonine-protein kinase 26 (Homo sapiens) (Q9P289 2-416 limits assumed): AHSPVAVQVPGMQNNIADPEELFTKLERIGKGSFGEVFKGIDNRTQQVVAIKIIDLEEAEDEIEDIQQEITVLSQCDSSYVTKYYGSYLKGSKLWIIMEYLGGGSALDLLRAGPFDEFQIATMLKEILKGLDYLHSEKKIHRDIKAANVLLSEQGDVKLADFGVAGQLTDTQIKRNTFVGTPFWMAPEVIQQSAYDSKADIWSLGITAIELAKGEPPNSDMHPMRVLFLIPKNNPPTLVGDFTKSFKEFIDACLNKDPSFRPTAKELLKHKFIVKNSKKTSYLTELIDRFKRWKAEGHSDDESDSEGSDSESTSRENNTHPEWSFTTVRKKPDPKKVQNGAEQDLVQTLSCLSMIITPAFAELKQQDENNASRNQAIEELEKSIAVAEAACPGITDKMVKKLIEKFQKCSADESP

[5] = target: Serine/threonine-protein kinase PAK 1 (Homo sapiens) (UniProt Q13153); assay: Binding affinity to recombinant PAK1 (unknown origin) assessed as stabilization by measuring change in melting temperature at 10 uM by SYPRO orange dye based differential scanning fluorimetry assay
Chain of Serine/threonine-protein kinase PAK 1 (Homo sapiens) (Q13153 whole entry): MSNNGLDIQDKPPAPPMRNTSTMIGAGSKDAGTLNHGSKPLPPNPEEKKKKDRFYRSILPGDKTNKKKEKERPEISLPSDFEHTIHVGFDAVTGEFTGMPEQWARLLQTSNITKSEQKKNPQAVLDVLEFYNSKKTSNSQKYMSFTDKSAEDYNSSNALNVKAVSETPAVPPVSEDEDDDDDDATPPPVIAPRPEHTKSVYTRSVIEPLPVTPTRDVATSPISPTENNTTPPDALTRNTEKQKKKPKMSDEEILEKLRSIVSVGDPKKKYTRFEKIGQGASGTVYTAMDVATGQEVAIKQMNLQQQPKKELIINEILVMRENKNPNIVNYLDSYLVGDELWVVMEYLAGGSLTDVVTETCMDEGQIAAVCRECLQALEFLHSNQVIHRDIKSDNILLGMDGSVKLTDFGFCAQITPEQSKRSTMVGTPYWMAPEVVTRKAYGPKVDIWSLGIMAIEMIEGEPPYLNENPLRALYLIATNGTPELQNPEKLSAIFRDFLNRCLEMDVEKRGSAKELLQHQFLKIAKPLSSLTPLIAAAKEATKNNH

[6] = target: Serine/threonine-protein kinase SIK2 (Homo sapiens) (UniProt Q9H0K1); assay: Inhibition of recombinant human GST-tagged SIK2 assessed as downregulation of SIK2 phosphorylation at Ser358 incubated for 30 mins by Western blotting analysis
Chain of Serine/threonine-protein kinase SIK2 (Homo sapiens) (Q9H0K1 whole entry, looked up): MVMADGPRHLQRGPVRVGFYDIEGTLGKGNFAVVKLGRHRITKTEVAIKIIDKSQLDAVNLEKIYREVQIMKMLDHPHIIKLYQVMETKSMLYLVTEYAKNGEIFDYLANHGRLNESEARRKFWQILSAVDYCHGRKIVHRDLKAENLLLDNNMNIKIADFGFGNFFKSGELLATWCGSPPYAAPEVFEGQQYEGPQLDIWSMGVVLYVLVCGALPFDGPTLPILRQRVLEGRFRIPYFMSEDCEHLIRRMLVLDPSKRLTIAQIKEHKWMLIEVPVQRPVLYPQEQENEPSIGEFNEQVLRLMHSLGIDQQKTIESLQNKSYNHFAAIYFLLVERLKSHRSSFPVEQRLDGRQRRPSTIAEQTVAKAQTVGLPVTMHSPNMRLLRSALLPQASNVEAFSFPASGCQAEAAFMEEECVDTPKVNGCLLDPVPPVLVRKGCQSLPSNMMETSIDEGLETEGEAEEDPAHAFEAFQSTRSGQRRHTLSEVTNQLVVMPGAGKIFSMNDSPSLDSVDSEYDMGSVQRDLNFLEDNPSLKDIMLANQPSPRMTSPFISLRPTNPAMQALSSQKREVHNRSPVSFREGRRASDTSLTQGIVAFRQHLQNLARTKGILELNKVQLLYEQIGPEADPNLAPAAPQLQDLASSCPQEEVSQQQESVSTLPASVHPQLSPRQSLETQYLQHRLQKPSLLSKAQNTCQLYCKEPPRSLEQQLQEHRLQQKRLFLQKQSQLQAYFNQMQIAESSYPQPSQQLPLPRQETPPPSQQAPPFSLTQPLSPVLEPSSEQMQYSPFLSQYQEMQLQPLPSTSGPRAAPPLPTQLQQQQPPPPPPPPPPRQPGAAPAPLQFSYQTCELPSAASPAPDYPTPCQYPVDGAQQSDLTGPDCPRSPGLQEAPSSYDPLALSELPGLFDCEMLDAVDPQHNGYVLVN

[7] = target: Serine/threonine-protein kinase SIK2 (Homo sapiens) (UniProt Q9H0K1); assay: Inhibition of recombinant human GST-tagged SIK2 assessed as downregulation of SIK2 phosphorylation at Ser358 a 5 uM incubated for 30 mins by Western blotting analysis
[8] = target: Serine/threonine-protein kinase SIK2 (Homo sapiens) (UniProt Q9H0K1); assay: Inhibition of SIK2 in human SK-OV-3 cells assessed as decrease in centrosome dissociation in G2 phase at 5 uM incubated for 48 hrs by immunofluorescence assay; format: cell-based
SK-OV-3 [9] = assay: Induction of cell cycle arrest in human SK-OV-3 cells assessed as accumulation of cells at G1 phase at 5 uM incubated for 24 hrs by flow cytometry (reference value: 34%); format: functional
SK-OV-3 [10] = assay: Induction of cell cycle arrest in human SK-OV-3 cells assessed as accumulation of cells at S phase at 5 uM incubated for 24 hrs by flow cytometry (reference value: 32%); format: functional
[11] = target: Serine/threonine-protein kinase SIK2 (Homo sapiens) (UniProt Q9H0K1); assay: Inhibition of SIK2 in human SK-OV-3 cells assessed as downregulation of AKT phosphorylation at Ser473 at 5 uM incubated for 48 hrs by Western blotting analysis; format: cell-based
HCT-116 [12] = assay: Cytotoxicity against human HCT-116 cells assessed as reduction in cell count at 1 uM incubated for >60 hrs by Hoechst-33342 staining high-content imaging analysis; format: toxicity, cell-based; settings: hct-116, 60 h
HCT-116 [13] = assay: Cytotoxicity against human HCT-116 cells assessed as decrease in cell viability at 10 uM incubated for 24 hrs by Hoechst-33342 staining high-content imaging analysis; format: toxicity, cell-based; settings: hct-116, 24 h
[14] = target: Serine/threonine-protein kinase SIK1 (Homo sapiens, UniProt P57059); assay: Inhibition of full length NanoLuc fused SIK1 (unknown origin) transfected in HEK293T cells using NanoBRET NanoGlo substrate incubated for 2 hrs in presence of tracer by NanoBRET assay; format: cell-based
Chain of Serine/threonine-protein kinase SIK1 (P57059 whole entry, the tested form may be a part): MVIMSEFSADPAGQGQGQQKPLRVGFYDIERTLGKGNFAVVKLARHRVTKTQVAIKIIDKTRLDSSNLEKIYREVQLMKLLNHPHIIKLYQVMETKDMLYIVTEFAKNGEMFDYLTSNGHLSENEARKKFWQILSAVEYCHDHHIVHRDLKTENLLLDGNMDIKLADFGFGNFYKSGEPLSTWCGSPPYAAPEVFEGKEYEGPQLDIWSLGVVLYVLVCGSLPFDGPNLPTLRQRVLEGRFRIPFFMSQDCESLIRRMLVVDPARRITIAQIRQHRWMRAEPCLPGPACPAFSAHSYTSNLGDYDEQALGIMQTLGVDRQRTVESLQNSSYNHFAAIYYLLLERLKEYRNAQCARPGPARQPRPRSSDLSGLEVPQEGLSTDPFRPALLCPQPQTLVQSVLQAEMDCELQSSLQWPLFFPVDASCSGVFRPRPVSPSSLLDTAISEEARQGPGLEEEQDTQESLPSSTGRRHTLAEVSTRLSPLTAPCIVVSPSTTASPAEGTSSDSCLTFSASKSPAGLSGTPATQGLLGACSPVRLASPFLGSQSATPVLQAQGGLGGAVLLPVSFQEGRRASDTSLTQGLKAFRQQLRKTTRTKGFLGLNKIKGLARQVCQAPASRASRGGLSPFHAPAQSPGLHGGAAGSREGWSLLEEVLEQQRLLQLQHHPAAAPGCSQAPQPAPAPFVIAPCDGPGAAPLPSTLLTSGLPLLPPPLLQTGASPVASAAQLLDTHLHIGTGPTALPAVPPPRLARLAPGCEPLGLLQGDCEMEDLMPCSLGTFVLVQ

SK-OV-3 [15] = assay: Induction of cell cycle arrest in human SK-OV-3 cells assessed as accumulation of cells at G2 phase at 5 uM incubated for 24 hrs by flow cytometry (reference value: 24%); format: functional
HCT-116 [16] = assay: Cytotoxicity against human HCT-116 cells assessed as effect on cell viability at 1 uM incubated for 80 hrs by Hoechst-33342 staining high-content imaging analysis; format: toxicity, cell-based; settings: hct-116, 80 h
[17] = target: Mitogen-activated protein kinase kinase kinase 20 (Homo sapiens, UniProt Q9NYL2); assay: Inhibition of full-length human ZAK using MBP as substrate in presence off ATP by competitive binding assay
Chain of Mitogen-activated protein kinase kinase kinase 20 (Q9NYL2 whole entry): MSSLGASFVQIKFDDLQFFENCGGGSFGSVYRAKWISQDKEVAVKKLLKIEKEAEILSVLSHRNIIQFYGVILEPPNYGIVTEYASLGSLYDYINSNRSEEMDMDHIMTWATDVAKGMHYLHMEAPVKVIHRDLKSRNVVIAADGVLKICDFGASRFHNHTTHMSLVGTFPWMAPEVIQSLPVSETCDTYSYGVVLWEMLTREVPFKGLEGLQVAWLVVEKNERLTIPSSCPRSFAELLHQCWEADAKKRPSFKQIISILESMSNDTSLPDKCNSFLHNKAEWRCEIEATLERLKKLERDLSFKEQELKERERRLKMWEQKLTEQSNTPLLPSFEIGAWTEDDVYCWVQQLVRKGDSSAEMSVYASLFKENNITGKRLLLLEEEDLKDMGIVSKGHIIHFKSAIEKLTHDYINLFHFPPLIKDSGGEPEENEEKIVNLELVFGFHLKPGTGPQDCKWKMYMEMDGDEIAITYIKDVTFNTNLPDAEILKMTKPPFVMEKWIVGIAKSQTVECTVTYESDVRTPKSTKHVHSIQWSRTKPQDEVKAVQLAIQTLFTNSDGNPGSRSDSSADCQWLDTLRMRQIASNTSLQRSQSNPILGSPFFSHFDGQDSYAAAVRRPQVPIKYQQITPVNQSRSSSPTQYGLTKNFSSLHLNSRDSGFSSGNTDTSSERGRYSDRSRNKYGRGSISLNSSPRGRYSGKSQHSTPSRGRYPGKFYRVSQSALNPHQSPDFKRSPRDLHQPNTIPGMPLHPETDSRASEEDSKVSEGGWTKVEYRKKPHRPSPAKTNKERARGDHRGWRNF

## CNc1ncc2cc(-c3cc(Cl)ccc3Br)c(=O)n(CCCCN)c2n1
[1]
  ΔTm: 1.5 °C
[2]
  ΔTm: 1.4 °C
[3]
  ΔTm: 2 °C
[4]
  ΔTm: 1.8 °C
[5]
  ΔTm: 0.6 °C

## CNc1ncc2cc(-c3cc(Br)ccc3Br)c(=O)n(CCCCN)c2n1
[1]
  ΔTm: 1.6 °C
[2]
  ΔTm: 1.4 °C
[3]
  ΔTm: 1.9 °C
[4]
  ΔTm: 1.5 °C
[5]
  ΔTm: 0.7 °C

## CNc1ncc2cc(-c3cc(F)c(-c4cccc(C)n4)cc3F)c(=O)n(CCCCN)c2n1
[1]
  ΔTm: 2.8 °C
[2]
  ΔTm: 5.2 °C
[3]
  ΔTm: 9.7 °C
[4]
  ΔTm: 7.6 °C
[5]
  ΔTm: 3.6 °C

## CNc1ncc2cc(-c3ccccc3Cl)c(=O)n(CCCCN)c2n1
[1]
  ΔTm: 1.9 °C
[2]
  ΔTm: 2.2 °C
[3]
  ΔTm: 3.8 °C
[4]
  ΔTm: 2.6 °C
[5]
  ΔTm: 1.1 °C
[6]
  inhibition: Dose-Dependent Effect
[7]
  inhibition: Active
[8]
  inhibition: Active
SK-OV-3 [9]
  Activity: 58%
SK-OV-3 [10]
  Activity: 6%
[11]
  inhibition: Active
HCT-116 [12]
  Activity: Toxic
HCT-116 [13]
  Activity: Toxic

## CNc1ncc2cc(-c3cc(Br)ccc3Cl)c(=O)n(C[C@H]3OC[C@H](N)CO3)c2n1
[1]
  ΔTm: 1.7 °C
[2]
  ΔTm: 1.5 °C
[3]
  ΔTm: 0.8 °C
[4]
  ΔTm: 0.6 °C
[5]
  ΔTm: 0.6 °C

## CNc1ncc2cc(-c3ccc(-c4cccc(C)n4)cc3Cl)c(=O)n(C[C@H]3OC[C@H](N)CO3)c2n1
[1]
  ΔTm: 4.2 °C
[3]
  ΔTm: 8.5 °C
[14]
  IC50: 33 nM

## CNc1ncc2cc(-c3ccc(-c4ncccc4F)cc3Cl)c(=O)n(C[C@H]3OC[C@H](N)CO3)c2n1
[1]
  ΔTm: 1.8 °C
[3]
  ΔTm: 3.5 °C
[4]
  ΔTm: 2.7 °C
[5]
  ΔTm: 5.2 °C
[6]
  inhibition: Dose-Dependent Effect
[7]
  inhibition: Active
[8]
  inhibition: Active
SK-OV-3 [9]
  Activity: 70%
SK-OV-3 [15]
  Activity: 13%
SK-OV-3 [10]
  Activity: 7%
[11]
  inhibition: Active
HCT-116 [16]
  Activity: Non-Toxic
HCT-116 [13]
  Activity: Toxic

## CNc1ncc2cc(-c3cc(Cl)ccc3Cl)c(=O)n(CCCCN)c2n1
[1]
  ΔTm: 1.6 °C
[2]
  ΔTm: 1.4 °C
[3]
  ΔTm: 1.9 °C
[4]
  ΔTm: 2 °C
[5]
  ΔTm: 0.7 °C

## CNc1ncc2cc(-c3cc(Br)ccc3Cl)c(=O)n(CCCCN)c2n1
[1]
  ΔTm: 1.9 °C
[2]
  ΔTm: 2.5 °C
[3]
  ΔTm: 2.7 °C
[4]
  ΔTm: 2.2 °C
[5]
  ΔTm: 0 °C

## CN[C@@H]1C[C@H]2O[C@@](C)([C@@H]1OC)n1c3ccccc3c3c4c(c5c6ccccc6n2c5c31)C(=O)NC4
[5]
  ΔTm: 6.7 °C

## CNc1ncc2cc(-c3cc(C(F)(F)F)ccc3Cl)c(=O)n(CCCCN)c2n1
[1]
  ΔTm: 0.9 °C
[2]
  ΔTm: 0.8 °C
[3]
  ΔTm: 0.2 °C
[4]
  ΔTm: 0.4 °C
[5]
  ΔTm: 0.2 °C

## CCCS(=O)(=O)Nc1ccc(F)c(C(=O)c2c[nH]c3ncc(-c4ccc(Cl)cc4)cc23)c1F [VEMURAFENIB]
[17]
  IC50: 4 nM
